Patent publication US12139481B2, “Compositions comprising macrocycle derivatives incorporating bridged macrocycles and methods of producing and using same” (Southwestern Oklahoma State University, priority 2015, dated 2024)

Key:
[1] = test system: Cryptococcus neoformans ATCC 90113; assay: Antimicrobial microdilution assay against Cryptococcus neoformans (modified CLSI/NCCLS, optical density); assay type: cell-based; conditions: for X more potent than Amphotericin B: C. neoformans, ratio of molar IC50 to Amphotericin B; for C. neoformans IC50 / IC50: in vitro, C. neoformans ATCC 90113; for IC50: read-out: C. neoformans IC50 (mol/L)
How it was run: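 Broth microdilution (modified CLSI) in RPMI pH 6.0, samples serially diluted in 20% DMSO/saline and tested in duplicate, growth followed by OD630 before and after incubation. MFC is the lowest concentration giving no growth when 5 μL from clear wells is plated on agar.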

C. glabrata ATCC 90030 = assay: Antifungal broth dilution assay against C. glabrata (modified CLSI); assay type: cell-based, Candida glabrata; conditions: for C. glabrata IC50 / IC50: in vitro; for IC50: converted with molecular weight; for X more potent than Amphotericin B: molar IC50 ratio versus amphotericin B
How it was run: (§1)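 Modified CLSI broth microdilution with OD monitoring before and after incubation at 35 °C: Candida in RPMI 1640/MOPS pH 6.0, 1.5×10^3 CFU/ml, 46-50 h; Staphylococcus in cation-adjusted Mueller-Hinton pH 7.3, 5.0×10^5 CFU/ml, 16-20 h. IC50 from curve fit; MIC is the lowest concentration with no growth; MFC/MBC from subculture.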

[2] = test system: Staphylococcus aureus ATCC 29213; assay: Antibacterial broth dilution assay against S. aureus (modified CLSI); assay type: cell-based; conditions: for X more potent than ciprofloxacen: molar IC50 ratio versus ciprofloxacen
How it was run: as §1

[3] = test system: methicillin-resistant S. aureus ATCC 33591 (MRS); assay: Antibacterial broth dilution assay against MRSA (modified CLSI); assay type: cell-based, Staphylococcus aureus; conditions: for X more potent than ciprofloxacen: molar IC50 ratio versus ciprofloxacen
How it was run: as §1

[4] = test system: S. mansoni newly transformed schistosomula (NTS); assay: In vitro testing on Schistosoma mansoni newly transformed schistosomula (NTS), viability score; assay type: cell-based; conditions: 72 h
How it was run: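 Mechanically transformed S. mansoni (Liberian strain) NTS, cultured overnight, exposed at 100 per well to compound (from 10 mM DMSO stock; ≤1% DMSO controls) at 37 °C, 5% CO2 for 72 h. Viability scored microscopically from 3 (normal activity, intact tegument) to 0 (dead, granulated).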

[5] = test system: L. donovani promastigotes; assay: Antileishmanial Alamar Blue assay on promastigotes; assay type: cell-based, Leishmania donovani; conditions: for X more potent than Pentamidine: L. donovani, ratio of molar IC50 to Pentamidine; for L. donovani IC50 / IC50: promastigotes, 48 hours, Alamar Blue; for IC50: read-out: L. donavani IC50
How it was run: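 L. donovani promastigotes in RPMI 1640 with 10% FCS, from 3-day culture, were set at 5×10^5/mL and exposed to compound (50-3.1 μg/mL) for 48 hours at 26° C. Growth read by Alamar Blue fluorescence (ex 544/em 590 nm); IC50 from percent growth versus concentration.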

C. krusei ATCC 6258 = assay: Antifungal broth dilution assay against C. krusei (modified CLSI); assay type: cell-based, Candida krusei; conditions: for X more potent than Amphotericin B: C. krusei, ratio of molar IC50 to amphotericin B; for C. krusei IC50 / IC50: in vitro; for IC50: read-out: C. krusei IC50 (mol/L)
How it was run: as §1

[6] = test system: Plasmodium falciparum D6 clone (Sierra Leon, chloroquine-sensitive); assay: In vitro antimalarial assay, chloroquine-sensitive D6 clone; assay type: cell-based; conditions: D6 clone; for X more potent than chloroquine: molar IC50 ratio versus chloroquine; for IC50: converted with molecular weight, read-out: P. falciparum D6 IC50
Procedure: (§2) The compounds were assayed for in vitro antimalarial activity against the W2 clone and D6 clone of the pathogenic Plasmodium falciparum. The strains of P. falciparum were obtained from the Division of Experimental Therapeutics, Walter Reed Army Institute of Research, Washington D.C. Strains of Sierra Leon D6 and Indochina W2 are chloroquine-sensitive and chloroquine-resistant, respectively. The parasite was grown in type A human RBCs and, two strains subcultured daily with fresh medium and blood cells. On the day of the assay, a suspension of infected blood cells (2% parasitemia and 2% hematocrit) was prepared using type A human red blood cells. Assays were performed by standard 96-well flat-bottomed microplate methods and done in duplicate at different concentrations. IC50 values were obtained from the dose curves. Artemisinin and chloroquine were included in each assay as the drug controls, and DMSO was used as vehicle control. The whole protocol was developed based on the published method of Makler. The cytotoxicity assays were also performed in parallel against the Vero cells, and the selectivity index was measured. A selectivity index of >9 was considered to indicate a lead for further development of antimalarial drug.

[7] = test system: Plasmodium falciparum W2 clone (Indochina, chloroquine-resistant); assay: In vitro antimalarial assay, chloroquine-resistant W2 clone; assay type: cell-based; conditions: W2 clone; for X more potent than chloroquine: molar IC50 ratio versus chloroquine; for IC50: converted with molecular weight, read-out: P. falciparum W2 IC50
Procedure: as §2

[8] = in vitro, converted with molecular weight

Structure (SMILES)	X more potent than Amphotericin B [1]	C. neoformans IC50 [1]	IC50 [1]	C. glabrata IC50 (C. glabrata ATCC 90030)	IC50 (C. glabrata ATCC 90030)	X more potent than Amphotericin B (C. glabrata ATCC 90030)	Effect at 72 h (%) ([4]; NTS S. mansoni, 33 μM)	X more potent than Pentamidine [5]	L. donovani IC50 [5]	IC50 [5]	X more potent than Amphotericin B (C. krusei ATCC 6258)	C. krusei IC50 (C. krusei ATCC 6258)	IC50 (C. krusei ATCC 6258)	P. falciparum D6 IC50 [6]	X more potent than chloroquine [6]	P. falciparum W2 IC50 [7]	X more potent than chloroquine [7]	IC50 [6]	IC50 [7]	other results
CC(=O)[O-].CC(=O)[O-].CN1CCCN2CCN(CCCN(Cc3cccc(CN4CCCN5CCN(C)CCCN(CC5)CC4)c3)CC2)CC1.F[P-](F)(F)(F)(F)F.F[P-](F)(F)(F)(F)F.[Ni+2].[Ni+2] [CDG009, [Ni2(m-CB-Cyclams)(OAc)2][PF6]2]	0.07	3.530 µg/mL	3180 nM	5.150 µg/mL	4650 nM	0.31	0.00%													S. aureus IC50 ([2]; in vitro): 6.27 µg/mL; IC50 [2, 8]: 5660 nM; X more potent than ciprofloxacen [2]: 0.05; MRSa IC50 ([3]; in vitro): 5.410 µg/mL; IC50 [3, 8]: 4880 nM; X more potent than ciprofloxacen [3]: 0.04
CN1CCN2CCN(CC1)CCN(Cc1cc(CN3CCN4CCN(C)CCN(CC4)CC3)cc(CN3CCN4CCN(C)CCN(CC4)CC3)c1)CC2 [BNS017, tris-CB-cyclens]	2.56	0.070 µg/mL	93.2 nM				0.00%	0.16	25.46 µg/mL	33900 nM	0.19	5.850 µg/mL	7790 nM							
CC(=O)[O-].F[P-](F)(F)(F)(F)F.[Zn+2].c1ccc(CN2CCCN3CCN(CCCN(Cc4ccccc4)CC3)CC2)cc1 [RM41, [Zn(Bn2Bcyclam)(OAc)]PF6]							100.00%	0.38	9.51 µg/mL					0.2315 µg/mL	0.11	0.4010 µg/mL	1.14			Effect at 72 h (%) ([4]; NTS S. mansoni at 10 μM): 17.24%
CC(=O)[O-].F[P-](F)(F)(F)(F)F.[Cu+2].c1ccc(CN2CCCN3CCN(CCCN(Cc4ccccc4)CC3)CC2)cc1 [RM37, [Cu(Bn2Bcyclam)(OAc)]PF6]							100.00%	0.58	6.17 µg/mL	9150 nM				0.2855 µg/mL	0.09	0.5451 µg/mL	0.84	424 nM	809 nM	Effect at 72 h (%) ([4]; NTS S. mansoni at 10 μM): 24.14%
c1ccc(CN2CCN3CCN(CC2)CCN(Cc2ccccc2)CC3)cc1 [ANC14, Bn2Bcyclen]							43.24%	0.53	3.80 µg/mL	10000 nM				0.5110 µg/mL	0.03	0.7602 µg/mL	0.34	1350 nM	2010 nM	
CC(=O)[O-].F[P-](F)(F)(F)(F)F.[Ni+2].c1ccc(CN2CCCN3CCN(CCCN(Cc4ccccc4)CC3)CC2)cc1 [TC09, [Ni(Bn2Bcyclam)(OAc)]PF6]							43.24%	0.55	6.51 µg/mL	9730 nM	0.22	4.520 µg/mL	6750 nM	0.552 µg/mL	0.04	0.8876 µg/mL	0.51	825 nM	1330 nM	
CC(=O)[O-].CC(=O)[O-].CN1CCCN2CCN(CCCN(Cc3ccc(CN4CCCN5CCN(C)CCCN(CC5)CC4)cc3)CC2)CC1.F[P-](F)(F)(F)(F)F.F[P-](F)(F)(F)(F)F.[Cu+2].[Cu+2] [TJH384A, [Cu2(p-CB-cyclams)(OAc)2](PF6)2]	0.38	0.700 µg/mL	626 nM	14.590 µg/mL	13000 nM	0.11	5.41%				0.25	6.760 µg/mL	6050 nM							
CC(=O)[O-].CC(=O)[O-].CN1CCCN2CCN(CCCN(Cc3cccc(CN4CCCN5CCN(C)CCCN(CC5)CC4)c3)CC2)CC1.F[P-](F)(F)(F)(F)F.F[P-](F)(F)(F)(F)F.[Zn+2].[Zn+2] [RM51, [Zn2(m-CB-Cyclams)(OAc)2][PF6]2]	0.14	1.850 µg/mL					0.00%	0.30	19.82 µg/mL											S. aureus IC50 ([2]; in vitro): 6.17 µg/mL; X more potent than ciprofloxacen [2]: 0.05; MRSa IC50 ([3]; in vitro): 3.190 µg/mL; X more potent than ciprofloxacen [3]: 0.07
CC(=O)[O-].CC(=O)[O-].CC(=O)[O-].F[P-](F)(F)(F)(F)F.F[P-](F)(F)(F)(F)F.F[P-](F)(F)(F)(F)F.[Co+2].[Co+2].[Co+2].c1c(CN2CCNCCN3CCN(CC3)CC2)cc(CN2CCNCCN3CCN(CC3)CC2)cc1CN1CCNCCN2CCN(CC2)CC1 [CDG021, [Co3(tris-SB-Cyclens)(OAc)3][PF6]3]	0.45	≤ 0.800 µg/mL	534 nM	0.800 µg/mL	534 nM	2.66	11.71%				0.53	4.200 µg/mL	2800 nM							times more potent than AMB (C. glabrata ATCC 90030): 2.66
CC(=O)[O-].CC(=O)[O-].CC(=O)[O-].CN1CCN2CCN(CC1)CCN(Cc1cc(CN3CCN4CCN(C)CCN(CC4)CC3)cc(CN3CCN4CCN(C)CCN(CC4)CC3)c1)CC2.F[P-](F)(F)(F)(F)F.F[P-](F)(F)(F)(F)F.F[P-](F)(F)(F)(F)F.F[P-](F)(F)(F)(F)F.F[P-](F)(F)(F)(F)F.F[P-](F)(F)(F)(F)F.[Co+3].[Co+3].[Co+3] [BNS20, [Co3(tris-CB-Cyclens)(OAc)3][PF6]6]	0.47	1.000 µg/mL	506 nM	4.720 µg/mL	2390 nM	0.59	18.02%					0.980 µg/mL	496 nM							
